Among the data in patent US20250032465A1, “METHODS OF TREATING CNS DISORDERS” (HANGZHOU HIGHLIGHTLL PHARMACEUTICAL CO., LTD, priority 2021, published 2025) are Kp and IC50 values, retold here.

Data set [1] is described as follows: Brain penetration in rats. Format: in vivo. To be noted: male, rat, 10 mg/kg oral gavage, 8 hour post-dosing. The procedure: This testing was performed to test the ability of compounds to penetrate the blood-brain-barrier in rats. The testing was performed according to the following procedure: 1) For each compound, take 3 male rats with body weight of 217-228 g, formulate compound using 0.5% HPMC/water suspension at concentration of 1 mg/ml; 2) After fasting overnight, administer compound at 10 mg/kg by oral gavage; 3) Take plasma samples at 1, 2, 4, 8 hours post-dosing; 4) At 8 hour post-dosing, also take brain tissues and cerebrospinal fluid (CSF); 5) Analyze compound concentration in plasma, brain tissue, and CSF using LC-MS/MS method.

A further data set has as its target T1, JAK2 (Homo sapiens, UniProt O60674).
T1 construct: purchased Reaction Biology Corp, Malvern, PA (contract testing)
Briefly: JAK2 biochemical test (33P-ATP filter binding, Reaction Biology). The settings on record: read-out: Inhibition of JAK2 (IC50). The procedure:
(§1) The tests were conducted by Reaction Biology Corp, Malvern, PA (Anastassiadis et al. Nat Biotechnol. 2011; 29(11):1039-45). The step is briefly described as follows, using the basic reaction buffer: 20 mM Hepes (pH 7.5), 10 mM MgCl2, 1 mM EGTA, 0.02% Brij35, 0.02 mg/ml BSA, 0.1 mM Na3VO4, 2 mM DTT and 1% DMSO. The required cofactor was added to each kinase reaction respectively. Each reaction was performed according to the following reaction steps: 1) Preparing the designated substrate in the newly prepared basic reaction buffer; 2) Transferring the required cofactor to the above matrix solution; 3) Transferring the designated kinase to the substrate solution and mixing well slightly; 4) Transferring a compound of Formula (I) in DMSO to the kinase reaction mixture with Acoustic technique (Echo550; nanoliter range), culturing for 20 minutes at room temperature; 5) Introducing ^33P-ATP (specific activity: 10 μCi/μl) to the reaction mixture to trigger a reaction; 6) Culturing at room temperature and conducting a kinase reaction for 2 hours; 7) Plotting the reaction on P81 ion exchange paper; and 8) Testing the kinase activity with a filter binding assay. The results shown in Table 1 indicate that compounds of Formulae (I)-(III) are potent and selective TYK2/JAK1 inhibitors.

In data set [2] the target is T2, JAK1 (Homo sapiens, UniProt P23458).
T2 construct: purchased Reaction Biology Corp, Malvern, PA (contract testing)
Put plainly: JAK1 biochemical test (33P-ATP filter binding, Reaction Biology). The settings on record: read-out: Inhibition of JAK1 (IC50). The procedure:
as §1

In data set [3] the target is T3, TYK2 (Homo sapiens, UniProt P29597).
T3 construct: purchased Reaction Biology Corp, Malvern, PA (contract testing)
Put plainly: TYK2 cellular ELISA assay using NK92 cells (IL-12 and IL-18 stimulated IFNγ excretion). It is filed as cell-based. To be noted: IL-12 2 ng/ml, IL-18 5 ng/ml, 24 hours. As to the method: This testing was performed to test cellular TYK2 activity using IL-12 and IL-18 stimulated IFNγ excretion assay in NK92 cells. The testing was performed according to the following procedure: 1) Replace NK92 cell media containing IL-2 with media not containing IL-2, maintain overnight; 2) Plate NK92 cells to 96-well plate at density of ˜150,000 cell/well; 3) Add different concentrations of test article to wells, maintain in incubator at 37° C. and 5% CO2 for 1 hour; 4) Add IL-12 (final concentration: 2 ng/ml) and IL-18 (final concentration: 5 ng/ml) to stimulate for 24 hours in the above incubator; 5) After 24 hours, centrifuge at 2000 rpm for 5 min, take the supernatant and analyze according to instructions of the ELISA kit. In this assay, compounds of Formulae (II) and (III) had IC50<100 nM.

Another data set deals with T4, JAK3 (Homo sapiens, UniProt P52333).
T4 construct: purchased Reaction Biology Corp, Malvern, PA (contract testing)
T4 sequence (P52333 1-1124): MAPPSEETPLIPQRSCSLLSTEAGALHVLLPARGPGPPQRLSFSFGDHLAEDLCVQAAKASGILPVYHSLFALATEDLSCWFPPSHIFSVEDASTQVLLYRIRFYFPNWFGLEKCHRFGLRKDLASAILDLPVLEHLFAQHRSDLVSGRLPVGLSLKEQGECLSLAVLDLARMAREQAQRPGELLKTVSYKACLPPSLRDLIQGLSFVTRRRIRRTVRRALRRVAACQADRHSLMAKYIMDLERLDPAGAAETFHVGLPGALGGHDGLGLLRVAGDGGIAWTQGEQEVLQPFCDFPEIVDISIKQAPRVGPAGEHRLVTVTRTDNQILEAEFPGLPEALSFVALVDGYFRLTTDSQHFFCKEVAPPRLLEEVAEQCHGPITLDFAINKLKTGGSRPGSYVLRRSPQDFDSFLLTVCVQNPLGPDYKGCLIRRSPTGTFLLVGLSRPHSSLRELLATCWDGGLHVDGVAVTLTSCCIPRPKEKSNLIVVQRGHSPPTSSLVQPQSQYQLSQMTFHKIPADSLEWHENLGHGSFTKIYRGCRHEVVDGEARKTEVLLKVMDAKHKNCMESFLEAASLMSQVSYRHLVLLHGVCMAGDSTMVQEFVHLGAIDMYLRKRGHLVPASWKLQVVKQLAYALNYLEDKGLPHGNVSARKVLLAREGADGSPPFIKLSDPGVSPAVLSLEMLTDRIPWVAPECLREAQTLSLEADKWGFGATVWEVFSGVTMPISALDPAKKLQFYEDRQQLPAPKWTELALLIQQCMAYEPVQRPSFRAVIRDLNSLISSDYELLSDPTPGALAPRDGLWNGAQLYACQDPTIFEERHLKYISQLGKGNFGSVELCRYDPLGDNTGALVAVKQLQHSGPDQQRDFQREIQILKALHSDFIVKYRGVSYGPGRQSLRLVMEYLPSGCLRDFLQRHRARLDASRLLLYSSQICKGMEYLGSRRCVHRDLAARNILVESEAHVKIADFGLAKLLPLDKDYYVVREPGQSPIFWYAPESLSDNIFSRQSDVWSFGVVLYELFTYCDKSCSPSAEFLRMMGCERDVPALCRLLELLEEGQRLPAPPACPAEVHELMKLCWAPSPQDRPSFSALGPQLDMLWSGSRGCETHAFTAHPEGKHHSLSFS
Put plainly: JAK3 biochemical test (33P-ATP filter binding, Reaction Biology). The settings on record: read-out: Inhibition of JAK3 (IC50). The procedure: as §1

Data set [4] deals with T3, TYK2. Put plainly: TYK2 biochemical test (33P-ATP filter binding, Reaction Biology). To be noted: read-out: Inhibition of TYK2 (IC50). As to the method: as §1
Data set [5] can be described thus: Brain penetration in mice. Format: in vivo, C57BL/6 mice. To be noted: male, mouse, 30 mg/kg oral gavage, 4-hour post-dosing. The procedure:
This testing was performed to test the ability of compounds to penetrate the blood-brain-barrier in mice. The testing was performed according to the following procedure: 1) for each compound, take 3 male C57BL/6 mice with body weight of 17-18 g, formulate compound using 0.5% HPMC/water suspension at concentration of 3 mg/ml; 2) After fasting overnight, administer compound at 30 mg/kg by oral gavage; 3) Take plasma samples at 1, 2, 4 hours post-dosing; 4) At 4-hour post-dosing, also take brain tissues and cerebrospinal fluid (CSF) fluid; 5) Analyze compound concentration in plasma, brain tissue, and CSF fluid using LC-MS/MS method.

Data set [6] concerns the target T2, JAK1. Put plainly: JAK1 cellular ELISA assay using PBMC cells (IL-6 stimulated STAT3 phosphorylation). It is filed as cell-based. The settings on record: IL-6 100 ng/ml, 25 min. The procedure:
This testing was performed to test cellular JAK1 activity using the IL-6 stimulated STAT3 phosphorylation assay in PBMC cells. The testing was performed according to the following procedure: 1) Plate PBMC cells to 96-well plate at density of ˜300,000 cell/well; 2) Add different concentrations of test article to wells, maintain in incubator at 37° C. and 5% CO2 for 1 hour; 3) Add IL-6 (final concentration: 100 ng/ml) to stimulate for 25 min in the above incubator; 4) After stimulation, transfer the suspension to 1.5 mL tube, centrifuge at 200 g for 5 min, collect cells, add 100 μL 1× lysate, lyse on ice for 1 hour; 5) Centrifuge at 4° C. and 12000 rpm for 10 min, take the supernatant and analyze according to instructions of the ELISA kit. In this assay, compounds of Formulae (II) and (III) had IC50<300 nM.
For orientation: ELISA stands for enzyme-linked immunosorbent assay.

Like-named read-outs stand apart in the source and are kept apart here. Where only a bound is given, the exact number is not on record here.

T2 sequence (P23458 whole entry): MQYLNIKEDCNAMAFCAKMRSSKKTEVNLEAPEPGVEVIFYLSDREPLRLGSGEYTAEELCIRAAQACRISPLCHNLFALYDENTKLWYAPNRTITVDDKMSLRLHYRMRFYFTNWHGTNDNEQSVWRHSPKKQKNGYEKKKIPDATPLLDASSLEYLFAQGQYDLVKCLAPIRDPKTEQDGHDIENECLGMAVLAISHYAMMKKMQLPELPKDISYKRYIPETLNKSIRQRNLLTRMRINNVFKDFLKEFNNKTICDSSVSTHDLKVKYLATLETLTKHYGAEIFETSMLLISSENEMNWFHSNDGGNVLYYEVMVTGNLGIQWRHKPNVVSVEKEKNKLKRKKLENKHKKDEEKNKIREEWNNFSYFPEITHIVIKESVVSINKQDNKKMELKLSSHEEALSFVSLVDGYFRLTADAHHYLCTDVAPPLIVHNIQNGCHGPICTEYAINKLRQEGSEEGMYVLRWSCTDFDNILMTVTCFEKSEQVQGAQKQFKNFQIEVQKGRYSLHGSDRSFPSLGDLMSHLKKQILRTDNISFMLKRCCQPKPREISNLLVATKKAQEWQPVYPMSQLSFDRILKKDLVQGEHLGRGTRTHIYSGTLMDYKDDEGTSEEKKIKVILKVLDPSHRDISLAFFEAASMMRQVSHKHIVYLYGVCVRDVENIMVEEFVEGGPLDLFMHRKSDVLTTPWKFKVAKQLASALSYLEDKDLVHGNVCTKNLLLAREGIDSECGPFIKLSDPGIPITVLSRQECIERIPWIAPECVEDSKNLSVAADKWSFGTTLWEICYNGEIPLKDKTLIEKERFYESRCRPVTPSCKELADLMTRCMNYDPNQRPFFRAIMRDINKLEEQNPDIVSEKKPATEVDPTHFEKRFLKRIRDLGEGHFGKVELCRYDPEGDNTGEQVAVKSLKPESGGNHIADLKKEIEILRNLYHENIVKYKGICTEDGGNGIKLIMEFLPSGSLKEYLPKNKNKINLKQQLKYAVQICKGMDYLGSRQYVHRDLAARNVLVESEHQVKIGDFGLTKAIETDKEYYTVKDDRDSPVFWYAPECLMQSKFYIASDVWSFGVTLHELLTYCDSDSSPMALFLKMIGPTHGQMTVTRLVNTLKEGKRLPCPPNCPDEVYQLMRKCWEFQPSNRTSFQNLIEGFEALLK
T3 sequence (P29597 whole entry): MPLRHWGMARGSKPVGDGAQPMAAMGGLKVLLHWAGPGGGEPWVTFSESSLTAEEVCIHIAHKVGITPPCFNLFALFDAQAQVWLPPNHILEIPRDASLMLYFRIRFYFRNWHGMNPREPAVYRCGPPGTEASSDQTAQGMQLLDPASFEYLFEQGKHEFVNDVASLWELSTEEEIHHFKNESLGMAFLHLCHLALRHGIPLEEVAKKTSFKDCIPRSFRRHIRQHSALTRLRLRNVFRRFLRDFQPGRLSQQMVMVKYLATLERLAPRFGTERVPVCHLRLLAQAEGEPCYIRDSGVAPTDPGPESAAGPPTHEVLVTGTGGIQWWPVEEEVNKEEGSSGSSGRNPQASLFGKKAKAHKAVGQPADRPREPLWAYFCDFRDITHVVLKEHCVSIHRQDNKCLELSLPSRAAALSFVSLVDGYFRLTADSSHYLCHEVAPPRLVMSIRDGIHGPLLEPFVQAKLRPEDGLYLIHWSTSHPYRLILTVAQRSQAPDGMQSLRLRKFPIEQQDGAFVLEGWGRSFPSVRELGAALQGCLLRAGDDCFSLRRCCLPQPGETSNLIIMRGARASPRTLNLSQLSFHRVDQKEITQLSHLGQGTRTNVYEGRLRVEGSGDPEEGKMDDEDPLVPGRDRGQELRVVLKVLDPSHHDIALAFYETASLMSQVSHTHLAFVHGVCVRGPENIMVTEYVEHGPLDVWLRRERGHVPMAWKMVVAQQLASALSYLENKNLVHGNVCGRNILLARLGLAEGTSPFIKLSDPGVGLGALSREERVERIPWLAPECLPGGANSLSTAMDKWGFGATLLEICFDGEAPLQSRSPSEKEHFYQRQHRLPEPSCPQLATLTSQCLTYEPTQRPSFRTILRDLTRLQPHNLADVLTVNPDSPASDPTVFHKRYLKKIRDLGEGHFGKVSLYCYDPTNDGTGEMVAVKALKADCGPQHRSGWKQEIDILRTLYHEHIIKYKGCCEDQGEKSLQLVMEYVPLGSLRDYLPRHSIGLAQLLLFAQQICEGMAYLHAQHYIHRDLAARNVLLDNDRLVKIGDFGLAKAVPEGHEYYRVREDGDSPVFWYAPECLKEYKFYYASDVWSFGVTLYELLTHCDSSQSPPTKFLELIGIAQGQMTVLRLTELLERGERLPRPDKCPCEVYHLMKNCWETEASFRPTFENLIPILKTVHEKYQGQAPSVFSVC
T1 sequence (O60674 whole entry): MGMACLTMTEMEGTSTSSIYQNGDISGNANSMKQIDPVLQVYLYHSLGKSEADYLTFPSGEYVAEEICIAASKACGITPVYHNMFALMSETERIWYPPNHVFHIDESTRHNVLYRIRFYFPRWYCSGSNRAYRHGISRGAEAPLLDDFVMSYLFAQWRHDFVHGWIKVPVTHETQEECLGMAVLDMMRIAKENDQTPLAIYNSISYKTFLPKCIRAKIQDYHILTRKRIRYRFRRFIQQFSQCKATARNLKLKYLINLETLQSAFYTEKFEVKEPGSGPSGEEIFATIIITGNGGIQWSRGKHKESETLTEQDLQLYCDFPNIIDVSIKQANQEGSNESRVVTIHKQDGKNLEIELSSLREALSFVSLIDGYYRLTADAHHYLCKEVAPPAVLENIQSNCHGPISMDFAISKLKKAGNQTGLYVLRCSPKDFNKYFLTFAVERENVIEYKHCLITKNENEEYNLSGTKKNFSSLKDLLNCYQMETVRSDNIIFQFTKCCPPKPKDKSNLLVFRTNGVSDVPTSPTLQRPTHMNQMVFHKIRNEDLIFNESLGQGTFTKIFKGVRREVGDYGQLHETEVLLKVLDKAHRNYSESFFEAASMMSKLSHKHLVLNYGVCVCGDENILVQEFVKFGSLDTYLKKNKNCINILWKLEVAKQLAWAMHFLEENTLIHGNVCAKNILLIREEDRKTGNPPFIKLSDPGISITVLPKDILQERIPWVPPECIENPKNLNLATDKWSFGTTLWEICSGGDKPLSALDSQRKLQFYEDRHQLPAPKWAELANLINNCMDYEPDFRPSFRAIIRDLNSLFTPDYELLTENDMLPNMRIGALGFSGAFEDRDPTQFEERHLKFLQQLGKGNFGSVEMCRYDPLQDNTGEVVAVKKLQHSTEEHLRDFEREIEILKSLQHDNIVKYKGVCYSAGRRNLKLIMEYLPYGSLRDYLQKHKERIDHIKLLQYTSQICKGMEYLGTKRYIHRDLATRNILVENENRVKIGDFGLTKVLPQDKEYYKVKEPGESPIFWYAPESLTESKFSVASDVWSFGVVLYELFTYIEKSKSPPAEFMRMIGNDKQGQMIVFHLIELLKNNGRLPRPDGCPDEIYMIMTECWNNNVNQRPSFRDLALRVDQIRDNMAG

As a reminder, the IC50 is the concentration that inhibits the measured activity by half. Turning to `Cc1nc2cnc3ccoc3c2n1[C@H]1CC[C@H](CC#N)CC1` [Formula (III)], the Kp at 8 h was above 0.15 in data set [1] (CSF/plasma, read-out: CSF (ng/ml)/ Plasma (ng/ml)) and above 0.4 in data set [1] (brain/plasma, read-out: Brain (ng/ml)/ Plasma (ng/ml)). Besides, the IC50 on JAK2 is above 20 nM; at JAK1 [2], below 10 nM; against TYK2 [3], below 100 nM; on JAK3 it was above 100 nM; at TYK2 [4], below 10 nM; against JAK1 [6], below 300 nM. Also, the Kp at 4 h is above 0.15 in data set [5] (C57BL/6, CSF/plasma, read-out: CSF (ng/ml)/ Plasma (ng/ml)) and above 0.3 in data set [5] (C57BL/6, brain/plasma, read-out: Brain (ng/ml)/ Plasma (ng/ml)).
Take `CCc1nc2cnc3ccoc3c2n1[C@H]1CC[C@H](CC#N)OC1` [Formula (I)]: the results for the IC50 at JAK2, at JAK1 [2] and at TYK2 [4] were above 200 nM, below 10 nM and below 100 nM, respectively.
